Among the test systems are SW-620; M14; MOLT-4; SK-MEL-28; MDA-MB-231; UO-31; OVCAR-3; Hs-578T; Malme-3M; SN12C; PC-3; IGROV-1; SF-539; OVCAR-4; SNB-75; OVCAR-8; EKVX; COLO 205; MDA-N; HOP-62.
Experiment in all cases: NCI-60 cell line screen, 48 h

We go through seven molecules from ChEMBL document CHEMBL1201862, “PubChem BioAssay data set” (2004).

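Step 1: Grow cells in 96-well plates. Step 2: Expose to compound for 48 hours at 5 concentrations. Step 3: Interpolate endpoints linearly; if unreached, use highest concentration. GI50: concentration for 50% inhibition of growth.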 The source made the active and inactive calls. No stated cut-off is given here; in the data, active = GI50 up to about 1.1 µM and inactive = higher. Some results are limits rather than exact numbers.

For the molecule `COC(=O)C1=C(C)C=C(N2CCOCC2)C(C(=O)OC)C1c1ccccc1` (stereo not given), the GI50 in the assay with SW-620, in the assay on M14, in the assay on MOLT-4, in the assay with SK-MEL-28, with MDA-MB-231 and in the assay with UO-31 was > 10 µM (inactive) in each case. The GI50 with OVCAR-3, in the assay on Hs-578T, in the assay on Malme-3M, with SN12C, with PC-3 and in the assay with IGROV-1 was > 10 µM (inactive) in each case. Besides, the GI50 in the assay with SF-539, in the assay on OVCAR-4, in the assay with SNB-75, in the assay on OVCAR-8, in the assay with EKVX and in the assay on COLO 205 was > 10 µM (inactive) each time. Also, the GI50 in the assay on MDA-N and in the assay with HOP-62 was > 10 µM (inactive) each time.

On to `CC1=NN(C(=O)CC(=O)Nc2ccccc2)C(=O)C1/N=N/c1ccc(C(=O)O)cc1` (stereo not given), for which the GI50 in the assay on SW-620, with M14, in the assay on MOLT-4, with SK-MEL-28, with MDA-MB-231 and with UO-31 was > 100 µM (inactive) each time. The GI50 with OVCAR-3 was > 100 µM (inactive); with Hs-578T, 78.7 µM (inactive); in the assay with Malme-3M, > 100 µM (inactive); in the assay with SN12C, > 100 µM (inactive); in the assay on PC-3, > 100 µM (inactive); with IGROV-1 it was > 100 µM (inactive). Also, the GI50 was 84.7 µM (inactive) in the assay with SF-539; > 100 µM (inactive) in the assay on OVCAR-4; > 100 µM (inactive) in the assay with SNB-75; > 100 µM (inactive) with OVCAR-8; > 100 µM (inactive) in the assay with EKVX; > 100 µM (inactive) with COLO 205. Besides, the GI50 is > 100 µM (inactive) in the assay on MDA-N and 75.9 µM (inactive) in the assay with HOP-62.

Turning to `[N-]=[N+]=Nc1ccc2c(c1)Sc1ccccc1N2CCCCCl`, the GI50 in the assay with SW-620 is 88.3 µM (inactive); in the assay with M14, > 100 µM (inactive); with MOLT-4, 22 µM (inactive); in the assay with SK-MEL-28 it was > 100 µM (inactive); in the assay with MDA-MB-231, > 100 µM (inactive); in the assay with UO-31, > 100 µM (inactive). Moreover, the GI50 in the assay on OVCAR-3 was 82.2 µM (inactive); in the assay on Hs-578T, 35.8 µM (inactive); in the assay on Malme-3M it was 37.1 µM (inactive); with SN12C it was > 100 µM (inactive); in the assay with PC-3, 41.3 µM (inactive); in the assay with IGROV-1, > 100 µM (inactive). For the same molecule, the GI50 with SF-539 was > 100 µM (inactive); in the assay on OVCAR-4, 80.4 µM (inactive); with SNB-75, > 100 µM (inactive); in the assay with OVCAR-8 it was 69.8 µM (inactive); in the assay with EKVX, 56 µM (inactive); with COLO 205 it was 18.7 µM (inactive). In addition, the GI50 in the assay on MDA-N was 48.4 µM (inactive); with HOP-62, > 100 µM (inactive).

For `ONCCCn1cnc2c(NC3CC3)ncnc21`, the GI50 in the assay with SW-620, in the assay on M14, in the assay on MOLT-4, with SK-MEL-28, with MDA-MB-231 and in the assay with UO-31 was > 100 µM (inactive) throughout. Also, the GI50 in the assay with OVCAR-3, in the assay on Hs-578T, with Malme-3M, in the assay on SN12C, in the assay on PC-3 and with IGROV-1 was > 100 µM (inactive) each time. The GI50 with SF-539, with OVCAR-4, in the assay with SNB-75, with OVCAR-8, in the assay with EKVX and in the assay on COLO 205 was > 100 µM (inactive) in each case. Also, the GI50 in the assay on MDA-N and with HOP-62 was > 100 µM (inactive) throughout.

For `CCC/C(Cl)=N/OC(NC(=O)OCC)(C(F)(F)F)C(F)(F)F`, the GI50 is 19.8 µM (inactive) in the assay with SW-620; 17.9 µM (inactive) in the assay with M14; 32.5 µM (inactive) in the assay on MOLT-4; 26.5 µM (inactive) with SK-MEL-28; 17.6 µM (inactive) in the assay with MDA-MB-231; 19.6 µM (inactive) in the assay on UO-31. For the same molecule, the GI50 with OVCAR-3 is 15.8 µM (inactive); in the assay with Hs-578T, 34.5 µM (inactive); in the assay on Malme-3M, 15.4 µM (inactive); in the assay with SN12C, 16.7 µM (inactive); with PC-3 it was 98.9 µM (inactive); in the assay on IGROV-1, 16.6 µM (inactive). Besides, the GI50 is 16.7 µM (inactive) in the assay with SF-539; 17.6 µM (inactive) in the assay on OVCAR-4; 82.4 µM (inactive) with SNB-75; 33.9 µM (inactive) in the assay on OVCAR-8; 20.9 µM (inactive) with EKVX; 19.8 µM (inactive) in the assay on COLO 205. Moreover, the GI50 was 20.5 µM (inactive) in the assay with MDA-N and > 100 µM (inactive) with HOP-62.

For the molecule `CN(C)c1ccc(/C=c2/c3ccccc3n3c2cc(/C=C/c2ccccc2)[n+]3C)cc1`, the GI50 was 0.0916 µM (active) in the assay on SW-620; 0.218 µM (active) in the assay on M14; 0.0743 µM (active) with MOLT-4; 0.269 µM (active) in the assay with SK-MEL-28; 0.261 µM (active) with MDA-MB-231; 0.344 µM (active) in the assay on UO-31. Besides, the GI50 in the assay on OVCAR-3 is 0.141 µM (active); in the assay on Hs-578T, 0.0287 µM (active); in the assay with Malme-3M, 0.233 µM (active); in the assay with SN12C, 0.0841 µM (active); in the assay with PC-3, 0.0933 µM (active); in the assay on IGROV-1, 0.145 µM (active). For the same molecule, the GI50 with SF-539 is 0.038 µM (active); in the assay with OVCAR-4, 0.286 µM (active); with SNB-75, 0.033 µM (active); in the assay on OVCAR-8, 0.0773 µM (active); in the assay on EKVX, 0.265 µM (active); in the assay with COLO 205, 0.073 µM (active). The GI50 with MDA-N is 0.249 µM (active); in the assay with HOP-62 it was 0.0893 µM (active).

For `Cc1ccnc2[nH]c3ccccc3c(=O)c12`, the GI50 was 35.9 µM (inactive) in the assay with SW-620; 26.8 µM (inactive) in the assay with M14; 20.4 µM (inactive) with MOLT-4; 15.1 µM (inactive) in the assay on SK-MEL-28; 38.8 µM (inactive) in the assay with MDA-MB-231; 18 µM (inactive) with UO-31. The GI50 was 23.7 µM (inactive) in the assay with OVCAR-3; 16.3 µM (inactive) in the assay on Hs-578T; 19.2 µM (inactive) in the assay on Malme-3M; 21.3 µM (inactive) with SN12C; 21.8 µM (inactive) in the assay on PC-3; 17.5 µM (inactive) in the assay with IGROV-1. Besides, the GI50 in the assay on SF-539 is 17.9 µM (inactive); in the assay on OVCAR-4, 29 µM (inactive); in the assay on SNB-75, 16.7 µM (inactive); with OVCAR-8, 27 µM (inactive); in the assay with EKVX, 28.8 µM (inactive); in the assay with COLO 205, 19.8 µM (inactive). Further, the GI50 was 21 µM (inactive) with MDA-N and 43.8 µM (inactive) in the assay on HOP-62.
